Measured values as given in patent US20250312499A1, “KISSPEPTIN RECEPTOR (KISS1R) TARGETED THERAPEUTICS AND USES THEREOF” (priority 2024, published 2025).
Numbered stars: 1 amine (or outer) side, 2 acyl side, 3 side chain; on linkers, the order of the positions; unused ones are H or OH. Square brackets hold non-standard residues; d marks the D form. Peptide text beside a SMILES is read from it. * marks the point of attachment. DOTA = O=C(O)CN1CCN(CC(=O)O)CCN(CC(=O)*)CCN(CC(=O)O)CC1; Ala(9-anthryl) = N[C@@H](Cc1c2ccccc2cc2ccccc12)C(=O)O; Gly(N-(3-F-4-Me-benzyl)) = Cc1ccc(CNCC(=O)*)cc1F; Butanoyl(4-(4-I-phenyl)) = O=C(CCCc1ccc(I)cc1)*; Propanoyl(3-(MeO(CH2CH2O)2)) = COCCOCCOCCC(=O)*; X11 = O=C(c1ccc(-c2ccccc2)c(OCCN[*:1])c1)[*:2]; Api(1-amidino) = N=C(N)N1CCC(N)(C(=O)O)CC1; Hydrocinnamoyl(4-Me) = Cc1ccc(CCC(=O)*)cc1; Hydrocinnamoyl(4-I) = O=C(CCc1ccc(I)cc1)*; Phe(4-CN) = N#Cc1ccc(C[C@H](N)C(=O)O)cc1; HO(CH2CH2O)2CH2CH2CO = O=C(CCOCCOCCO)*; 2Nal = N[C@@H](Cc1ccc2ccccc2c1)C(=O)O; d2Nal = N[C@H](Cc1ccc2ccccc2c1)C(=O)O; X1 = O=C(CN1CCC(N[*:1])CC1)[*:2]; dCya = N[C@H](CS(=O)(=O)O)C(=O)O; 4Pal = N[C@@H](Cc1ccncc1)C(=O)O; 4Amb = NCc1ccc(C(=O)O)cc1; Api = NC1(C(=O)O)CCNCC1; PEG2 = NCCOCCOCCC(=O)O; Ahx = NCCCCCC(=O)O; azaGly = NNC(=O)O; Sar = CNCC(=O)O

What follows are compounds tested against human kisspeptin receptor (Homo sapiens (Human), UniProt Q969F8) (assay: Human KISS1R binding assay (membrane competition binding)). Settings: 90 min at room temperature; competition with 0.2 nM [125I]-metastin (45-54); Flp-In T-Rex 293 kisspeptin membranes; metal complexes nonradioactive Ga, In, Lu; read-out: hKiSSR Binding Ki (90 min).
Chain of human kisspeptin receptor (Q969F8 whole entry): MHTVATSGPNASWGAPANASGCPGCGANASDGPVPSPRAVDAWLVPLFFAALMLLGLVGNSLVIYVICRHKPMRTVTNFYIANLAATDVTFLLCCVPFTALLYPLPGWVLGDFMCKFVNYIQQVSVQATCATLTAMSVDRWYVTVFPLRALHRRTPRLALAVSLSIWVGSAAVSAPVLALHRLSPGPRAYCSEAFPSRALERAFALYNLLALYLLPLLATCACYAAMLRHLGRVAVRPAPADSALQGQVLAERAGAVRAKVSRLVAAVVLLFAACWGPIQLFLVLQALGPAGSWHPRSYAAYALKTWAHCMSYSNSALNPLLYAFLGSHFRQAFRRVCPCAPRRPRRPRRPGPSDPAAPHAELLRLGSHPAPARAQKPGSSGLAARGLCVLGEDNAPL
Outline: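 Radioligand competition: 0.2 nM [125I]-metastin (45-54) displaced by test ligand (usually 0–10,000 nM) over 90 min at room temperature, pH 7.4 buffer with 0.1% BSA. Receptor source is crude membrane (5–10 μg) from tetracycline-induced Flp-In T-Rex 293 cells. Bound label filtered and counted; Ki from non-linear regression.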

Row | Structure (SMILES) | Ki [nM]
1 | CC(C)C[C@H](NC(=O)NNC(=O)[C@H](Cc1ccccc1)NC(=O)[C@@H](NC(=O)[C@H](CC(N)=O)NC(=O)[C@@H](Cc1ccc2ccccc2c1)NC(=O)[C@@H](Cc1ccc(O)cc1)NC(=O)CCOCCOCCNC(=O)CCc1ccc(I)cc1)[C@@H](C)O)C(=O)NC1(C(=O)N[C@@H](Cc2ccc(O)cc2)C(N)=O)CCN(C(=N)N)CC1 [Compound 397] ({Hydrocinnamoyl(4-I)-PEG2}-[dY][d2Nal]NTF[azaGly]L[Api(1-amidino)]Y-NH2) | < 10
2 | Cc1ccc(CNCC(=O)N2CCC(NC(=O)[C@H](CC(C)C)NC(=O)NNC(=O)[C@H](Cc3ccccc3)NC(=O)[C@@H](NC(=O)[C@H](CCC(=O)O)NC(=O)CN3CCC(NC(=O)CN4CCN(CC(=O)O)CCN(CC(=O)O)CCN(CC(=O)O)CC4)CC3)[C@@H](C)O)(C(=O)N[C@@H](Cc3c[nH]c4ccccc34)C(N)=O)CC2)cc1F [Compound 234] ({DOTA}-[X1]ETF[azaGly]L[Api](Gly(N-(3-F-4-Me-benzyl)))W-NH2) | < 10
3 | Cc1ccc(CNCC(=O)N2CCC(NC(=O)[C@H](CC(C)C)NC(=O)NNC(=O)[C@H](Cc3ccccc3)NC(=O)[C@@H](NC(=O)[C@H](CCCCNC(=O)CN3CCN(CC(=O)O)CCN(CC(=O)O)CCN(CC(=O)O)CC3)NC(=O)CCOCCOCCO)[C@@H](C)O)(C(=O)N[C@@H](Cc3ccncc3)C(N)=O)CC2)cc1F [Compound 251] ({HO(CH2CH2O)2CH2CH2CO}-K(DOTA)TF[azaGly]L[Api](Gly(N-(3-F-4-Me-benzyl)))[4Pal]-NH2) | > 100
4 | Cc1ccc(CNCC(=O)N2CCC(NC(=O)[C@H](CC(C)C)NC(=O)NNC(=O)[C@H](Cc3ccccc3)NC(=O)[C@@H](NC(=O)[C@H](CC(N)=O)NC(=O)[C@@H](Cc3c[nH]c4ccccc34)NC(=O)[C@@H](Cc3ccc(O)cc3)NC(=O)CCCCCNC(=O)CN3CCN(CC(=O)O)CCN(CC(=O)O)CCN(CC(=O)O)CC3)[C@@H](C)O)(C(=O)N[C@@H](Cc3ccc(C#N)cc3)C(N)=O)CC2)cc1F [Compound 104] ({DOTA-Ahx}-[dY][dW]NTF[azaGly]L[Api](Gly(N-(3-F-4-Me-benzyl)))[Phe(4-CN)]-NH2) | < 10
5 | Cc1ccc(CNCC(=O)N2CCC(NC(=O)[C@H](CC(C)C)NC(=O)NNC(=O)[C@H](Cc3ccccc3)NC(=O)CN(C)C(=O)CN(C)C(=O)CN3CCN(CC(=O)O)CCN(CC(=O)O)CCN(CC(=O)O)CC3)(C(=O)N[C@@H](Cc3c[nH]c4ccccc34)C(N)=O)CC2)cc1F [Compound 17] ({DOTA}-[Sar][Sar]F[azaGly]L[Api](Gly(N-(3-F-4-Me-benzyl)))W-NH2) | < 10
6 | Cc1ccc(CCC(=O)NCCOCCOCCC(=O)N[C@H](Cc2ccc(O)cc2)C(=O)N[C@H](CCCCNC(=O)CN2CCN(CC(=O)O)CCN(CC(=O)O)CCN(CC(=O)O)CC2)C(=O)N[C@@H](CC(N)=O)C(=O)N[C@H](C(=O)N[C@@H](Cc2ccccc2)C(=O)NNC(=O)N[C@@H](CC(C)C)C(=O)NC2(C(=O)N[C@@H](Cc3c[nH]c4ccccc34)C(N)=O)CCN(C(=N)N)CC2)[C@@H](C)O)cc1 [Compound 338] ({Hydrocinnamoyl(4-Me)-PEG2}-[dY][dK](DOTA)NTF[azaGly]L[Api(1-amidino)]W-NH2) | < 10
7 | CNCC(=O)N1CCC(NC(=O)[C@H](CC(C)C)NC(=O)NNC(=O)[C@H](Cc2ccccc2)NC(=O)[C@@H](NC(=O)[C@H](CC(N)=O)NC(=O)[C@H](Cc2c3ccccc3cc3ccccc23)NC(=O)[C@@H](Cc2ccc(O)cc2)NC(=O)CN2CCN(CC(=O)O)CCN(CC(=O)O)CCN(CC(=O)O)CC2)[C@@H](C)O)(C(=O)N[C@@H](Cc2ccncc2)C(N)=O)CC1 [Compound 202] ({DOTA}-[dY][Ala(9-anthryl)]NTF[azaGly]L[Api](Sar)[4Pal]-NH2) | 10 to 100
8 | Cc1ccc(CNCC(=O)N2CCC(NC(=O)c3cccc(OCCNC(=O)[C@H](Cc4ccccc4)NC(=O)CCCCCNC(=O)CN4CCN(CC(=O)O)CCN(CC(=O)O)CCN(CC(=O)O)CC4)c3)(C(=O)N[C@@H](Cc3c[nH]c4ccccc34)C(N)=O)CC2)cc1F [Compound 134] | 10 to 100
9 | Cc1ccc(CNCC(=O)N2CCC(NC(=O)[C@H](CC(C)C)NC(=O)NNC(=O)[C@H](Cc3ccccc3)NC(=O)[C@@H](NC(=O)[C@H](CC(N)=O)NC(=O)[C@@H](Cc3c[nH]c4ccccc34)NC(=O)[C@@H](Cc3ccc(O)cc3)NC(=O)CCCCCNC(=O)CN3CCN(CC(=O)O)CCN(CC(=O)O)CCN(CC(=O)O)CC3)[C@@H](C)O)(C(=O)N[C@@H](Cc3ccncc3)C(N)=O)CC2)cc1F [Compound 105] ({DOTA-Ahx}-[dY][dW]NTF[azaGly]L[Api](Gly(N-(3-F-4-Me-benzyl)))[4Pal]-NH2) | < 10
10 | Cc1ccc(CNCC(=O)N2CCC(NC(=O)[C@H](CC(C)C)NC(=O)NNC(=O)[C@H](Cc3ccccc3)NC(=O)[C@@H](NC(=O)[C@H](CC(N)=O)NC(=O)c3ccc(CNC(=O)CN4CCN(CC(=O)O)CCN(CC(=O)O)CCN(CC(=O)O)CC4)cc3)[C@@H](C)O)(C(=O)N[C@@H](Cc3ccc(C#N)cc3)C(N)=O)CC2)cc1F [Compound 240] ({DOTA-4Amb}-NTF[azaGly]L[Api](Gly(N-(3-F-4-Me-benzyl)))[Phe(4-CN)]-NH2) | < 10
11 | CNCC(=O)N1CCC(NC(=O)[C@H](CC(C)C)NC(=O)NNC(=O)[C@H](Cc2ccccc2)NC(=O)[C@@H](NC(=O)[C@H](CC(N)=O)NC(=O)[C@@H](Cc2ccc3ccccc3c2)NC(=O)[C@@H](Cc2ccc(O)cc2)NC(=O)CCCc2ccc(I)cc2)[C@@H](C)O)(C(=O)N[C@@H](Cc2ccc(O)cc2)C(N)=O)CC1 [Compound 399] ({Butanoyl(4-(4-I-phenyl))}-[dY][d2Nal]NTF[azaGly]L[Api](Sar)Y-NH2) | < 10
12 | Cc1ccc(CNCC(=O)N2CCC(NC(=O)[C@H](CC(C)C)NC(=O)NNC(=O)[C@H](Cc3ccccc3)NC(=O)CCCCCNC(=O)[C@@H](CS(=O)(=O)O)NC(=O)[C@@H](CS(=O)(=O)O)NC(=O)[C@@H](CS(=O)(=O)O)NC(=O)CN3CCN(CC(=O)O)CCN(CC(=O)O)CCN(CC(=O)O)CC3)(C(=O)N[C@@H](Cc3c[nH]c4ccccc34)C(N)=O)CC2)cc1F [Compound 131] ({DOTA}-[dCya][dCya][dCya][Ahx]F[azaGly]L[Api](Gly(N-(3-F-4-Me-benzyl)))W-NH2) | < 10
13 | COCCOCCOCCC(=O)N[C@@H](CCCCNC(=O)CN1CCN(CC(=O)O)CCN(CC(=O)O)CCN(CC(=O)O)CC1)C(=O)N[C@@H](CC(N)=O)C(=O)N[C@H](C(=O)N[C@@H](Cc1ccccc1)C(=O)NNC(=O)N[C@@H](CC(C)C)C(=O)NC1(C(=O)N[C@@H](Cc2c[nH]c3ccccc23)C(N)=O)CCN(C(=N)N)CC1)[C@@H](C)O [Compound 264] ({Propanoyl(3-(MeO(CH2CH2O)2))}-K(DOTA)NTF[azaGly]L[Api(1-amidino)]W-NH2) | < 10
14 | Cc1ccc(CNCC(=O)N2CCC(NC(=O)c3ccc(-c4ccccc4)c(OCCNC(=O)[C@H](Cc4ccccc4)NC(=O)[C@@H](NC(=O)[C@H](CC(N)=O)NC(=O)[C@@H](Cc4c[nH]c5ccccc45)NC(=O)[C@@H](Cc4ccc(O)cc4)NC(=O)CCCCCNC(=O)CN4CCN(CC(=O)O)CCN(CC(=O)O)CCN(CC(=O)O)CC4)[C@@H](C)O)c3)(C(=O)N[C@@H](Cc3c[nH]c4ccccc34)C(N)=O)CC2)cc1F [Compound 279] ({DOTA-Ahx}-[dY][dW]NTF[X11][Api](Gly(N-(3-F-4-Me-benzyl)))W-NH2) | < 10
15 | CSCC[C@H](NC(=O)c1ccc(CNC(=O)CN2CCN(CC(=O)O)CCN(CC(=O)O)CCN(CC(=O)O)CC2)cc1)C(=O)N[C@H](C(=O)NCc1ccc(C(=O)N[C@@H](CCSC)C(=O)N[C@H](C(=O)N[C@@H](CCCCNC(=O)CCCCC(=O)N[C@@H](CC(N)=O)C(=O)N[C@H](C(=O)N[C@@H](Cc2ccccc2)C(=O)NNC(=O)N[C@@H](CC(C)C)C(=O)NC2(C(=O)N[C@@H](Cc3c[nH]c4ccccc34)C(N)=O)CCN(C(=O)CNCc3ccc(C)c(F)c3)CC2)[C@@H](C)O)C(=O)O)C(C)C)cc1)C(C)C [Compound 167] | < 10
16 | CC(C)C[C@H](NC(=O)NNC(=O)[C@H](Cc1ccccc1)NC(=O)[C@@H](NC(=O)[C@H](CC(N)=O)NC(=O)[C@H](Cc1ccc2ccccc2c1)NC(=O)[C@@H](Cc1ccc(O)cc1)NC(=O)CCCCCNC(=O)CN1CCN(CC(=O)O)CCN(CC(=O)O)CCN(CC(=O)O)CC1)[C@@H](C)O)C(=O)NC1(C(=O)N[C@@H](Cc2ccc(O)cc2)C(N)=O)CCN(C(=N)N)CC1 [Compound 276] ({DOTA-Ahx}-[dY][2Nal]NTF[azaGly]L[Api(1-amidino)]Y-NH2) | < 10
17 | Cc1ccc(CNCC(=O)N2CCC(NC(=O)[C@H](CC(C)C)NC(=O)NNC(=O)[C@H](Cc3ccccc3)NC(=O)c3ccc(CNC(=O)[C@@H](CS(=O)(=O)O)NC(=O)[C@@H](CS(=O)(=O)O)NC(=O)CN4CCN(CC(=O)O)CCN(CC(=O)O)CCN(CC(=O)O)CC4)cc3)(C(=O)N[C@@H](Cc3c[nH]c4ccccc34)C(N)=O)CC2)cc1F [Compound 146] ({DOTA}-[dCya][dCya][4Amb]F[azaGly]L[Api](Gly(N-(3-F-4-Me-benzyl)))W-NH2) | < 10
18 | CC(=O)N[C@H](Cc1ccc(O)cc1)C(=O)N[C@@H](CCCCNC(=O)CN1CCN(CC(=O)O)CCN(CC(=O)O)CCN(CC(=O)O)CC1)C(=O)N[C@@H](CC(N)=O)C(=O)N[C@H](C(=O)N[C@@H](Cc1ccccc1)C(=O)NNC(=O)N[C@@H](CC(C)C)C(=O)NC1(C(=O)N[C@@H](Cc2c[nH]c3ccccc23)C(N)=O)CCN(C(=O)CNCc2ccc(C)c(F)c2)CC1)[C@@H](C)O [Compound 380] (Ac-[dY]K(DOTA)NTF[azaGly]L[Api](Gly(N-(3-F-4-Me-benzyl)))W-NH2) | < 10
19 | CNCC(=O)N1CCC(NC(=O)[C@H](CC(C)C)NC(=O)NNC(=O)[C@H](Cc2ccccc2)NC(=O)[C@@H](NC(=O)[C@H](CC(N)=O)NC(=O)[C@@H](Cc2ccc3ccccc3c2)NC(=O)[C@H](N)Cc2ccc(O)cc2)[C@@H](C)O)(C(=O)N[C@@H](Cc2c[nH]c3ccccc23)C(N)=O)CC1 [Compound 408] (H-[dY][d2Nal]NTF[azaGly]L[Api](Sar)W-NH2) | < 10
